Like-named read-outs stand apart in the source and are kept apart here.
Columns and labels:
U87-mIDH cells = test: cellular uptake in U87-mIDH cells; format: cell-based, human; conditions: U87-mIDH cells; for cellular uptake: incubation 1 h
Procedure: (§1) Consistent with this assumption, uptake of [^18F]4 and, to a lesser extent, the ^18F-fluoroethoxylated analog [^18F]5 by both cell lines was considerably higher than that of (S)-[^18F]2.
(§2) Human glioblastoma cells with a c.395G>A knock-in mutation encoding mIDH1R132H (HTB-14IG™) and the corresponding wildtype cells (HTB-14™) were purchased from the American Type Culture Collection (ATCC). The cells were grown under standard culture conditions (5% CO2 and 95% air at 37 °C) in Eagle’s Minimum Essential Medium (MEM) supplemented with 10% fetal bovine serum (FBS) and antibiotics (penicillin–streptomycin mixed solution, Gibco, Thermo Fisher Scientific, Oberhausen, Germany).
(§3) For the cellular uptake studies, 1.5 × 10^5 cells were seeded into gelatin-coated 12-well transwell plates and incubated in 1 mL MEM (without FBS and antibiotics) containing 18.5 kBq (0.5 µCi) of the corresponding radiotracer. After incubation at 21 °C for 1 h, the supernatant was collected, the cells were lysed with 40 mM NaOH and the radioactivity of both fractions was measured with a gamma counter. The total protein concentration of the cell lysate was measured by a bicinchoninic acid (BCA) assay. The radiotracer uptake was calculated as the ratio of radioactivity in the cell fraction and the supernatant and normalized by protein content (% uptake/100 µg protein). Statistical analysis of the results was performed with Originlab Pro 2023b using two-tailed t-tests with a significance level of 0.05 to identify significant differences between groups.

[1] = lipophilicity by shake-flask method (n-octanol/water or PBS); format: physicochemical; conditions: triplicate; for logD: n-octanol/PBS pH 7.4, shake-flask, read-out: logD7.4 Exp. Determined; for logP: n-octanol/water, shake-flask
Procedure: As a measure for the lipophilicity of the four radiolabeled probes, their partition coefficients (logP) and distribution coefficients at pH 7.4 (logD7.4) were determined by the shake-flask method. Table 1 summarizes the results of these experiments and compares them with the predicted logD7.4 values calculated using the ADMETlab platform.
A solution of the corresponding radiotracer in DMSO (1 µL) was added to a mixture of n-octanol and PBS (pH = 7.4) or water (750 µL of each) in a 2 mL Eppendorf vial and the vial was vortexed for 2 min and centrifuged for another 2 min to separate the two phases. A total of 300 µL of the upper n-octanol phase was then carefully removed from the top, while 300 µL of the aqueous phase was removed by piercing the bottom of the vial with a syringe and cannula to avoid contact with the organic phase. Both fractions were transferred into fresh vials and counted in a gamma counter to determine the ratio between the activity in the organic and the aqueous phase. All measurements were performed in triplicate and the results are expressed as mean ± standard deviation of the logarithm of the partition coefficient between n-octanol and water (logP) or the logarithm of the distribution coefficient between n-octanol and PBS (logD7.4), respectively.

U87-WT cells = test: cellular uptake in U87-WT cells; format: cell-based, human; conditions: incubation 1 h
Procedure: as §1, §2, §3

mIDH1R132H [2] = target: T1, mIDH1R132H (Homo sapiens, UniProt O75874, R132H); test: enzymatic inhibition assay with commercial IDH1 (R132H) kit; format: biochemical; conditions: for Amax (fit parameter) / Amin (fit parameter) / Hill slope: Hill fit; for Amax (fit parameter) / Amin (fit parameter) / Hill slope / IC50: parentheses = 95% CI; for IC50: non-labeled compounds, n = 3, read-out: IC50 for suppression of mIDH1R132H
T1 construct: purchased BPS Bioscience, San Diego, CA, USA
T1 sequence (O75874 whole entry R132H): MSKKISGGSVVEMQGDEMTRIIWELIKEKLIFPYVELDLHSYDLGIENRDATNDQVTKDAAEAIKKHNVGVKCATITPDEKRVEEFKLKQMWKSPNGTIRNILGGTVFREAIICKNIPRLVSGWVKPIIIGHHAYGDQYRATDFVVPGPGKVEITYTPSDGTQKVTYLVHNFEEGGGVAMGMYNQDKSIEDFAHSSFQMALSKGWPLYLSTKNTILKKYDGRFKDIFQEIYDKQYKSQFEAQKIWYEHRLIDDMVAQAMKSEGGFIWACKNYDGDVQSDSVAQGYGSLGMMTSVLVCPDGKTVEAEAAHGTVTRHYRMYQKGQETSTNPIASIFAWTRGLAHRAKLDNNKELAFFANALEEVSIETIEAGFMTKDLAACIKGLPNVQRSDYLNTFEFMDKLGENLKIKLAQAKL
Procedure: The inhibitory activity of the candidate probes against mIDH1 was evaluated by enzymatic assays with serially diluted solutions of the non-labeled compounds using a commercially available assay kit (IDH1 (R132H) from BPS Bioscience, San Diego, CA, USA). IC50 values were determined with GraphPad Prism 4.00 by fitting the resulting dose-response curves with the Hill function.
Data are shown as mean ± standard deviation (n = 3). For additional fit parameters and 95% confidence intervals, see Table S12 in Section S4.1.4 of Supplementary Materials. TEXT PRINTED IN THE PICTURE: (S)-2: IC50 [nM]: 102 | (R)-2: IC50 [nM]: 1358 | 4: IC50 [nM]: 713 | 5: IC50 [nM]: 8279
4.1.4. Inhibitory potency (IC50)
Values in parenthesis indicate 95% confidence intervals.

[3] = stability of reference compounds in DMSO; format: physicochemical; conditions: room temperature, at least 28 h, non-labeled reference compounds
Procedure: The in vitro stability of the radiolabeled probes was evaluated by incubation studies with phosphate-buffered saline (PBS) and rat serum.
A solution of the corresponding reference compound in DMSO (1 mg/mL) was incubated at room temperature for 28–30 h, during which aliquots were removed every few hours and analyzed by analytical HPLC. The fraction of intact reference compound at each time point was calculated by dividing the peak area of the reference compound by the total area of all peaks in the chromatogram and plotted as a function of time.

mIDH1R132H [4] = target: T1, mIDH1R132H; conditions: cited from earlier work

## C[C@H](Nc1ccc(C#N)n(C)c1=O)c1cc2cc([18F])ccc2[nH]c1=O [(S)-[^18F]2]
U87-mIDH cells
  fold higher cellular uptake than (R)-[^18F]2: approx. 2 fold
  cellular uptake: 0.9 ± 0.2 % per 100 µg protein
[1]
  logD: 2.51 ± 0.11
U87-WT cells
  cellular uptake: 1.2 ± 0.7 % per 100 µg protein

## C[C@@H](Nc1ccc(C#N)n(C)c1=O)c1cc2cc([18F])ccc2[nH]c1=O [(R)-[^18F]2]
U87-mIDH cells
  cellular uptake: 0.5 ± 0.1 % per 100 µg protein
[1]
  logD: 2.51 ± 0.11
  logP: negative

## C[C@@H](Nc1ccc(C#N)n(C)c1=O)c1cc2cc(F)ccc2[nH]c1=O [(R)-2, (R)-5-[{1-(6-Fluoro-2-oxo-1,2-dihydroquinoline-3-yl)ethyl}amino]-1-methyl-6-oxo-1,6-dihydropyridine-2-carbonitrile]
mIDH1R132H [2]
  fold higher IC50 value relative to (S)-enantiomer: > 10 fold
  Amax (fit parameter): 79 (72−87) %
  Amin (fit parameter): 28 (25−31) %
  Hill slope: 3.0 (1.3−4.8)
  IC50: 1360 nM

## C[C@H](Nc1ccc(C#N)n(C)c1=O)c1cc2cc(F)ccc2[nH]c1=O [(S)-2, (S)-5-[{1-(6-Fluoro-2-oxo-1,2-dihydroquinoline-3-yl)ethyl}amino]-1-methyl-6-oxo-1,6-dihydropyridine-2-carbonitrile]
mIDH1R132H [2]
  Amax (fit parameter): 95 (93−97) %
  Amin (fit parameter): 33 (30−35) %
  Hill slope: 5.6 (4.0−7.2)
  IC50: 102 nM
[3]
  decomposition in DMSO: no decomposition

## COc1cc(NCc2cc3cc(F)ccc3[nH]c2=O)ccc1C#N [compound 4, 4-{[(6-Fluoro-2-oxo-1,2-dihydroquinolin-3-yl)methyl]amino}-2-methoxybenzonitrile]
mIDH1R132H [2]
  fold lower potency than (S)-2 in functional assays: roughly 7 fold
  Amax (fit parameter): 98 (96−100) %
  Amin (fit parameter): 1.8 (0.6−3.0) %
  Hill slope: 2.8 (2.5−3.0)
  IC50: 713 nM
[3]
  decomposition in DMSO: less than 10%

## N#Cc1ccc(NCc2cc3cc(F)ccc3[nH]c2=O)cc1OCC[18F] [[^18F]5]
U87-mIDH cells
  cellular uptake: 3.2 ± 0.6 % per 100 µg protein
[1]
  logD: 2.72 ± 0.06
[1]; read-out: logP
  logP: 2.77 ± 0.03
U87-WT cells
  cellular uptake: 3.7 ± 0.6 % per 100 µg protein

## COc1cc(NCc2cc3cc(Cl)ccc3[nH]c2=O)ccc1C#N [compound 3]
mIDH1R132H [4]
  Selectivity (ratio of biochemical IC50 values for mIDH1R132H and the wildtype enzyme): > 700

## CC(Nc1ccc(C#N)n(C)c1=O)c1cc2cc(F)ccc2[nH]c1=O (centres unmarked) [mIDH-23]
mIDH1R132H [4]; biochemical assays, read-out: IC50 (reported potency for inhibition of mIDH1R132H)
  IC50: 23 nM
mIDH1R132H [4]
  Selectivity (ratio of biochemical IC50 values for mIDH1R132H and the wildtype enzyme): > 400

## N#Cc1ccc(NCc2cc3cc(F)ccc3[nH]c2=O)cc1OCCF [compound 5, 4-(((6-Fluoro-2-oxo-1,2-dihydroquinolin-3-yl)methyl)amino)-2-(2-fluoroethoxy)benzonitrile]
mIDH1R132H [2]
  Amax (fit parameter): 41 (36−45) %
  Amin (fit parameter): 3 (2−3) %
  Hill slope: 2.1 (1.6−2.7)
  IC50: 8280 nM
[3]
  decomposition in DMSO: less than 10%
